Experimental findings from paper PMC10413460 (ACS Omega, 2023) are described below.

In the assay the target is epidermal growth factor receptor tyrosine kinase (EGFR-TK) (Homo sapiens, UniProt P00533). Briefly: ADP-Glo kinase assay, cell-free. The assay is classed as biochemical. In general terms: ADP-Glo turns the ADP formed in a reaction into a luminescent signal.
Chain of epidermal growth factor receptor tyrosine kinase (EGFR-TK) (P00533 669-1210 limits assumed): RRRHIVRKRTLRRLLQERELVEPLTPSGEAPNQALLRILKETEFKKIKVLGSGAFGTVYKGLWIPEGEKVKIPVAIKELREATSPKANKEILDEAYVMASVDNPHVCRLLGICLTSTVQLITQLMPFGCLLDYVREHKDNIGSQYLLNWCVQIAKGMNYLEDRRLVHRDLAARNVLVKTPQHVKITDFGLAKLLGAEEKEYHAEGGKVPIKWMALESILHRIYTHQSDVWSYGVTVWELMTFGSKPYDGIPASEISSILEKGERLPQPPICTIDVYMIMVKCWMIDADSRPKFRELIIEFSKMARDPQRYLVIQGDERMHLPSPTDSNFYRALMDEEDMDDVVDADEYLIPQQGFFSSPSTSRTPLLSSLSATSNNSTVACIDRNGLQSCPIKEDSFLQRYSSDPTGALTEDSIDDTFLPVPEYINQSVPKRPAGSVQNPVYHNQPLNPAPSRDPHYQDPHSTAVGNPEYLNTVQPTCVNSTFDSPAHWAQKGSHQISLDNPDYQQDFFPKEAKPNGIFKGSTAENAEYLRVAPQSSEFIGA

For the compound `COC(=O)[C@@]12OC[C@]34[C@H]([C@@H](O)[C@@H]1O)[C@@]1(C)CC(=O)C(O)=C(C)[C@@H]1C[C@H]3OC(=O)[C@H](OC(=O)C=C(C)C)[C@@H]24` [brusatol], the IC50 (usually the concentration needed to halve the response being measured) was 333 nM.
